Experiment [1] has as its system Rat white adipocytes. As to the kind of experiment: Inhibition of the differentiation of adipocytes (Oil Red O). The format is cell-based. The following applies: Rattus norvegicus, Adipocyte, 120 h, 100 nM test compound; 5 days; Oil Red O ABS550; control = 100%, blank = 0%; Table 3; read-out: Rate of Differentiation (%). Here is the method: Rat white adipocytes contained in the white adipocyte culture kit purchased from HOKUDO were used. As the medium for proliferation and for differentiation-inducing, the medium contained in the white adipocyte culture kit purchased from HOKUDO was used. The cells in the present experiment were cultured in a CO2 incubator (37° C., 95% R.H., 5% CO2).
Immediately after arrival of the purchased cells, all medium for transportation was discarded and replaced with 5 ml of proliferation medium (/25 cm^2-flask) and the cells were cultured for one day. Then, a cell suspension was prepared with proliferation medium so as to be 83,000 cells/mL, and the cell suspension was plated into a type I 96-well collagen-coated microplate (SUMITOMO BAKELITE CO., ltd.) so as to be 5,000 cells/well (60 μL/well).
On the next day, all the proliferation medium was discarded and replaced with 147 μL/well of differentiation-inducing medium. Further, 1) in the group treated with the test compound, 3 μL/well of the solution, in which a test compound (100 μM) was dissolved in DMSO solution and diluted with differentiation-inducing medium by 20 times (final concentration of the test compound: 100 nM, final concentration of DMSO solution: 0.1% (v/v)), were added to the well where the cells were plated. 2) In the control group, 3 μL/well of DMSO solution that was diluted with differentiation-inducing medium by 20 times (final concentration of DMSO: 0.1% (v/v)) were added to the well where the cells were plated. Further, 3) in the blank group, 3 μL/well of DMSO solution that was diluted with differentiation-inducing medium by 20 times (final concentration: 0.1% (v/v)), was added to the blank well.
After culturing for 5 days, all differentiation-inducing medium was discarded and replaced with 60 μL of 10% (v/v) formaldehyde solution (for fixation) in each well and the cells were kept stationary for 20 min at room temperature. After this, the fixative solution was discarded and replaced with 60 μL of 0.2% (v/v) Triton X (Sigma-Aldrich Japan K. K.) solution in each well and kept stationary for 5 min at room temperature. Then all Triton X solution was discarded and replaced with 60 μL of 60% (v/v) isopropanol solution containing dissolved Oil Red O (Sigma-Aldrich Japan K. K.) so as to be 0.3%, which was adipose tissue staining solution, and the well was left stationary for 10 min at room temperature. After the adipose tissue staining solution was discarded, the well was washed twice with 60 JIL of 60% isopropanol solution. Then, 100 μL of the DMSO solution were added to each well and stirred for 5 min at room temperature, The absorbance was measured at 550 nm (ABS550) with a multi-plate reader (LabSystems), and the stained amount with Oil Red O was determined. The measured level at ABS550 in the control group was defined as 100%, while the level at ABS550 in the blank group was defined as 0%. The differentiation rate (%) of the adipocytes treated with the test compound was calculated.

Experiment [2] has as its system leptin production. The experiment is described as follows: Enhancing activity for leptin production in adipocytes (ELISA). The format is cell-based, rat. The following applies: Rattus norvegicus, Adipocyte, 24 h, leptin concentration as % of control group, read-out: Facilitating activity to produce leptin; for activity at 0.01 µM: 10 nm; for activity at 0.1 µM: 100 nm. Here is the method: Hanks solution was used for collection of adipose tissue. The Hanks solution was prepared by filtration of a mixed solution (pH: 7.5) of 120 mM NaCl, 4.8 mM KCl, 0.74 mM MgSO4, 0.30 mM Na2HPO4, 0.40 mM KH2PO4, 20 mM HEPES, 0.05% (w/v) glucose, 2% (w/v) BSA (Sigma-Aldrich Japan K. K., Cat. No. A7888), 0.95 mM CaCl2, 4.17 mM NaHCO3 and 1% (v/v) penicillin-streptomycin liquid (GIBCO BRL, Cat. No. 15140-122). The adipocytes were cultured in Dulbecco's modified Eagle's medium (GIBCO BRL, Cat. No. 11995-040) mixed with DMEM/F-12 (GIBCO BRL, Cat. No. 11320-033) at a ratio of 1:1, and added 0.2% (v/v) Hanks solution, 0.2 μg/L sodium selenite (GIBCO BRL, Cat. No. 13012-018), 0.002% (v/v) ethanolamine, 25 mM HEPES and 1% (v/v) penicillin-streptomycin liquid (GIBCO BRL, Cat. No. 15140-122). As many as possible of the other reagents used were special grade. In this experiment, the cells were cultured in a CO2 incubator (37° C., 95% humidity, 5% CO2).
Male Wistar Imamichi rats of 6 weeks old were sacrificed by bleeding following decapitation, and adipose tissue was removed from the epididymis and sectioned after the vessels were removed in warmed Hanks solution at 37° C. and were weighed. One (1) mL of Hanks solution containing 10 mg collagenase (Wako Pure Chemical Industries, Ltd., 034-10533) was added to the adipose tissue prepared. The solution was transferred into a tube having a volume of 50 mL, and the cells were evenly dispersed by incubation under gentle shaking at 37° C., 90 rpm, for 50 min. Then 20 mL of Hanks solution were added and filtrated through Nylon-mesh with a mesh diameter of 200 μm for removal of undigested tissue pieces. The floating adipocytes were separated from sediments and substances located in the lower layer by centrifugation at 1,000 rpm for 1 min at room temperature. The sediment and 22 mL of the low layer were pulled out with a probe, and the floating adipocytes were recovered. This procedure was repeated twice with Hanks solution and for 4 times with the culture medium. After these procedures the adipocytes were suspended in the culture medium at a volume of 60 mL per 1 g of the adipose tissue weighed previously. 100 μL of the suspended solution were plated in each well of a 96-well microplate (ASAHI TECHNO GLASS Corp.) In the group treated with the test compound, 1 μL/well of DMSO solution containing the dissolved the test compound at concentrations of 200 μM, 20 μM, 2 μM and 0.2 μM (final concentrations of the test compound: 1 μM, 100 nM, 10 nM and 1 nM, respectively) was plated in each of the well. In the control group, 1 μL/well of DMSO (final concentration: 0.1% (v/v)) was plated in each well. The plate was placed stationary in a CO2 incubator for 1 hr or longer, and the contents in the solution were equilibrated at 37° C. After they were equilibrated, the solution in each well was stirred with a magnetic stirrer in a water bath and the suspended solution maintained at 37° C. was plated into each well of the plate at 100 μL/well. After incubation of the cells for 24 hr, the suspended solution of cells was filtrated through a filter for the microplate, MultiScreen (MILLOPORE, MDV-N65). The concentration of leptin in the filtrated solution was determined with ELISA methods by using a Rat Leptin Determination Kit-IBL (Immuno-Biological Laboratories Co., Ltd., Cat. No. 17195). The facilitating activity of the compound to produce leptin was calculated from the following equation based on the concentration of leptin determined.
Facilitating Activity of the Compound to Produce Leptin (%)=(A/B)×100
A: Concentration of Leptin in the Treated Group with the Test Compound.
B: Concentration of Leptin in the Control Group.

For ten compounds, activity results are on record in patent US20030134859A1 (SANKYO COMPANY, LIMITED, priority 2000, published 2003).

As to `O=C(Nc1ccc(-c2ccc(-n3cccc3)cc2)cc1)c1cc([N+](=O)[O-])ccc1Cl` [Example 186, N-[4-[4-(Pyrrol-1-yl)phenyl]phenyl]-(2-chloro-5-nitrophenyl)carboxamide], the activity at 0.1 µM in experiment [1] stood at 56.3%. In addition, in experiment [2], the activity at 1 µM was 133%, the activity at 0.01 µM was 118% and the activity at 0.1 µM is 117%.

`CCCCCCN(CCC)c1ccc(-c2ccc(NC(=O)c3cc([N+](=O)[O-])ccc3Cl)cc2)cc1` [Example 198, N-[4-[4-(N-Hexyl-N-propylamino)phenyl]phenyl]-(2-chloro-5-nitrophenyl)carboxamide]: the results for the activity at 0.1 µM in experiment [1] and in experiment [2] were 48.2% and 111%, respectively. For the same compound, the activity at 1 µM in experiment [2] stood at 111%.

With `CCCCCCN(CCCCC)c1ccc(-c2ccc(NC(=O)c3cc([N+](=O)[O-])ccc3Cl)cc2)cc1` [Example 200, N-[4-[4-(N-Hexyl-N-pentylamino)phenyl]phenyl]-(2-chloro-5-nitrophenyl)carboxamide], in experiment [1], the activity at 0.1 µM came to 44.1%. In experiment [2], the activity at 1 µM amounted to 117%.

In the case of `CCCCCCN(CCCCCC)c1ccc(-c2ccc(NC(=O)c3cc([N+](=O)[O-])ccc3Cl)cc2)cc1` [Example 201, N-[4-[4-(N,N-Dihexylamino)phenyl]phenyl]-(2-chloro-5-nitrophenyl)carboxamide], the activity at 0.1 µM in experiment [1] was found to be 46.9%; in experiment [2], 114%. Moreover, the activity at 1 µM in experiment [2] came out at 112%.

Consider `CCCCCNc1ccc(-c2ccc(NC(=O)c3cc([N+](=O)[O-])ccc3Cl)cc2)cc1` [Example 202, N-[4-[4-(N-Pentylamino)phenyl]phenyl]-(2-chloro-5-nitrophenyl)carboxamide], for which the activity at 0.1 µM in experiment [1] came to 35.4%. Further, in experiment [2], the activity at 1 µM is 137%, the activity at 0.01 µM came out at 136% and the activity at 0.1 µM was 133%.

With `CCCCCCCCN(C)c1ccc(-c2ccc(NC(=O)c3cc([N+](=O)[O-])ccc3Cl)cc2)cc1` [Example 226, N-[4-[4-(N-Methyl-N-octylamino)phenyl]phenyl]-(2-chloro-5-nitrophenyl)carboxamide], the activity at 0.1 µM in experiment [1] came out at 42%. In addition, in experiment [2], the activity at 0.01 µM stood at 111%.

For the compound `CNC(=S)Nc1ccc(-c2ccc(NC(=O)c3cc([N+](=O)[O-])ccc3Cl)cc2)cc1` [Example 236, N-[4-[4-(Methylaminothiocarbonylamino)phenyl]phenyl]-(2-chloro-5-nitrophenyl)carboxamide], in experiment [1], the activity at 0.1 µM was 47.1%. Moreover, in experiment [2], the activity at 0.01 µM came to 112%.

In the case of `O=C(Nc1ccccc1)Nc1ccc(-c2ccc(NC(=O)c3cc([N+](=O)[O-])ccc3Cl)cc2)cc1` [Example 242, N-[4-[4-(Phenylaminocarbonylamino)phenyl]phenyl]-(2-chloro-5-nitrophenyl)carboxamide], the figures for the activity at 0.1 µM in experiment [1] and in experiment [2] were 57.6% and 111%, respectively.

For the compound `O=C(Nc1ccc(-c2ccc(NC(=O)c3cc([N+](=O)[O-])ccc3Cl)cc2)cc1)Nc1ccc(F)cc1F` [Example 249, N-[4-[4-[(2,4-Difluorophenyl)aminocarbonylamino]phenyl]phenyl]-(2-chloro-5-nitrophenyl)carboxamide], the activity at 0.1 µM in experiment [1] was found to be 61.9%. In experiment [2], the activity at 1 µM amounted to 111%, the activity at 0.01 µM came out at 114% and the activity at 0.1 µM is 113%.

Take `NC(=O)NCCc1ccc(NC(=O)c2cc([N+](=O)[O-])ccc2Cl)cc1` [Example 270, N-[4-(2-Aminocarbonylaminoethyl)phenyl]-(2-chloro-5-nitrophenyl)carboxamide]: in experiment [1], the activity at 0.1 µM was 45.9%. For the same compound, the activity at 0.01 µM in experiment [2] came out at 118%.
